Experiments:
[1] = tested on: bovine heart mitochondrial NADH oxidase activity (complexes I, III and IV); assay: NADH oxidase activity in bovine heart mitochondria; type: biochemical; details: complex I completely blocked by rotenone; FIG. 6
Experimental: The effect of the methylene blue analogues on the activities of complexes I, III and IV within the respiratory chain was evaluated using bovine heart mitochondria during the oxidation of their respective substrate (NADH) as described previously. Briefly, a small scale preparation of bovine heart mitochondria was prepared as described before (Smith, A. L (1967), Methods Enzymol. 10, 81). Bovine heart submitochondrial particles (SMPs) were prepared as described by Matsuno-Yagi and stored in a buffer containing 0.25 M sucrose and 10 mM Tris-HCl, pH 7.4, at −80° C. (Matsuno-Yagi, A.; Hatefi, Y. J. (1985) J. Biol. Chem. 260, 11424). SMPs were diluted to 0.5 mg/mL. Mitochondrial complexes I, III, and IV activity were assayed at 30 C and monitored spectrophotometrically using a Beckman Coulter DU-530 (340 nm, ε=6.22 mM^−1 cm^−1). NADH oxidase activity was determined in 50 mM Hepes buffer containing 5 mM MgCl2, pH 7.5, in a total volume of 2.5 mL. The final mitochondrial protein concentration was 30 μg/mL. The initial rates of NADH oxidation were calculated from the linear portion of the traces.

[2] = tested on: frataxin; assay: Frataxin protein expression (Western blot) in FRDA lymphocytes; type: cell-based, human; details: for level of frataxin (western blot): FRDA lymphocytes, FIG. 9
Experimental: Human mitochondrial disease cell line, Friedreich's ataxia lymphocytes (GM15850) was obtained from Coriell Cell Repositories (Camden, N.J.). Lymphocytes were cultured in RPMI-1640 medium (Gibco, Life Technologies, Grand Island, N.Y.) with 15% fetal calf serum, 2 mM glutamine (HyClone, South Logan, Utah) and 1% penicillin-streptomycin antibiotic supplement (Cellgro, Manassas, Va.). Cells were passaged every other day to maintain them in log phase growth and kept at a nominal concentration of 5-10×10^5 cell/mL. A CoQ10 deficient lymphocyte cell line (GM17932) was obtained from Coriell Cell Repositories. A nutrient sensitized screening strategy to identify methylene blue analogues that function within the mitochondrial respiratory chain was used by growing the CoQ10-deficient or FRDA lymphocytes in galactose containing media to force energy production predominantly through oxidative phosphorylation rather than glycolysis.^1-4 The lymphocytes were cultured in RPMI 1640 glucose free medium (Gibco, Grand Island, N.Y.) supplemented with 25 mM galactose, 2 mM glutamine and 1% penicillin-streptomycin, and 10% dialyzed fetal bovine serum (FBS) (<0.5 μg/mL) (Gemini Bio-Product, West Sacramento, Calif.).
Immortalized normal and FRDA lymphocyte cell lines were seeded at 500,000 cells per/mL (5 mL) in T-25 flask. Cultures were treated with the test compounds and incubated for 24 h. Cells were harvested by centrifugation, washed with saline buffer and then were lysed using 200 μL of lysis buffer (1% triton X-100, 0.1% SDS, Tris-HCl (50 Mm) pH 7.4, 150 mM NaCl, 0.5% sodium deoxycholate, 0.1 mM EDTA) with protease inhibitors (protease cocktail inhibitors (Roche Applied Science) and 1 mM phenylmethylsulfonyl fluoride (Sigma), and incubated on ice for 30 min with periodical mixing. These samples were cleared of insoluble material by centrifugation at 20,000×g for 10 min at 4° C. Total protein concentration was measured by the BCA kit (Thermo Fisher Scientific). NuPAGE LDS Sample Buffer (4×) and NuPAGE Reducing Agent (10×) was added the lysate and they were denatured at 95° C. for 5 min, then equal amounts of lysates ([…]) were used for immunoblotting. Samples were resolved on a 4%-12% SDS-polyacrylamide Bis-Tris gels (Invitrogen) according to the manufacturer's recommendations and then proteins were transferred to nitrocellulose membranes. After blocking with Superblock-TBS (Thermo Fisher Scientific) for 1 hour to inhibit non-specific binding the blot was incubated with anti-frataxin monoclonal antibody (5 μg/mL) (18A5DB1) (Novex®) (Life technologies) overnight at 4° C. to detect endogenous frataxin in FRDA and normal lymphocytes. Following three 5-min washes with TBST, the blots were incubated with horseradish peroxidase-linked secondary […] antibody IgGs (1:10,000, Sigma, in Superblock-TBS) at room temperature for 1 hr. The blots were washed three times for 5 min with TBST, rinsed with deionized H2O, and developed with enhanced chemiluminescence (ECL) (BioRad Chemi-Doc) using West Pico Chemiluminescent Substrate (Pierce Biotechnology).

| SMILES | effect on NADH oxidase activity: redirection of electron flow in the respiratory chain [1] | level of frataxin (western blot) ([2]; higher concentration) | level of frataxin (western blot) ([2]; lower concentration) | frataxin levels ([2]; general statement, concentration not given) |
| --- | --- | --- | --- | --- |
| CCCCCCCCCCCCCCCCCc1cc2nc3ccc(N(C)C)cc3sc-2cc1=[N+](C)C [compound 5, N-(7-(dimethylamino)-2-heptadecyl-3H-phenothiazin-3-ylidene)-N-methylmethan-aminium iodide] | able redirect electron flow in the respiratory chain |  |  |  |
| CCCCCCCCCCCCCCCN(CCCC)c1ccc2nc3ccc(=O)cc-3sc2c1 [compound 33, 7-(butyl(pentadecyl)amino)-3H-phenothiazin-3-one] |  | significantly increased | significantly increased | significantly increased |
| CN(C)c1ccc2nc3ccc(=[N+](C)C)cc-3sc2c1 [Methylene blue, 3,7-bis(dimethylamino)phenazathionium chloride, reference compound] |  | did not | slightly increased |  |

Reference: US11034662B2, “Substituted phenothiazines as mitochondrial agents” (ARIZONA BOARD OF REGENTS ON BEHALF OF ARIZONA STATE …, priority 2015, dated 2021)
